According to USRE39034E1, “Molecule involved in binding of sperm to egg surfaces and procedures for use of this molecule to enhance or decrease potential fertility” (The Penn State Research Foundation, priority 1996, dated 2006):
“Also recorded” adds a separate entry of the source. Blank lines part the entries; values can stand above or below the molecule they belong to. Bridges are numbered along the chain shown (N, C = ends). Where no end group is shown, it is not given here. [ ]: non-standard residue; d: D form.

Experiments:
[1] = tested on: frozen-thawed rooster sperm binding to an extract of hen's egg membrane; assay: In vitro microwell sperm-egg binding assay, sperm treated with peptides (fluorescent plate reader); type: cell-based; conditions: for Biological activity / sperm binding capability (in words) / Activity relative to SEQ ID NO: 1 / Peptide concentration which, after tenfold dilution of the sperm suspension, provided maximum binding / Concentration at which binding activity was induced (active at): frozen-thawed rooster sperm; for Peptide concentration which, after tenfold dilution of the sperm suspension, provided maximum binding: hen's egg membrane extract in microwell plate
Text: The biological activity of the native UPSEBP prepared from rooster sperm and synthetic amino acid sequences were compared in an in vitro assay of sperm binding described in copending U.S. patent application Ser. No. 08/234,448. This microwell assay used plates in which the wells were coated with a binding substrate prepared from an extract of hen's egg vitelline membrane. The thawed rooster sperm, known to be reduced in UPSEBP, were washed once with isotonic salt solutions, resuspended at 50×10^5/0.1 ml, and incubated 30 minutes with 0.02-50 μg/0.5 ml native UPSEBP or synthetic peptide. Then 0.1 ml of a suspension of about 5×10^6 sperm were placed into each of triplicate wells in a microwell plate. After 2 hours of incubation at 37° C., unbound sperm were washed away and bound sperm were stained and counted using a microscope. The number of sperm bound was considered to be a measure of biological activity because there is a high correlation between the number of rooster sperm bound in vitro to such an egg extract and the fertilizing potential of sperm in that sample, as quantified by the percentage of eggs hatching young chicks after artificial insemination. Table No. 1 presents the amino acid sequence of synthetic peptides and the resulting binding capacity as compared to native UPSEBP (full sequence not provided). Initial evaluations of the capabilities of SEQ ID NO:1 through SEQ ID NO:11, native UPSEBP and rat SGP-1 to enhance sperm binding to an egg-membrane substrate were based on visual counts of bound sperm and conducted over a number of months. The binding data for SEQ ID NO:1 through SEQ ID NO:12 and native UPSEBP and rat SGP-1 presented in Table No. 1 were obtained as two data sets using a recent version of that sperm-egg binding assay in which the bound sperm were stained with a fluorescent dye binding to DNA and quantified using a fluorescent microwell-plate reader, by techniques known to those skilled in the art. The amino acid sequences of portions of human prosaposin (SEQ ID NO:15) and mouse prosaposin (SEQ ID NO:16) also are as shown. [table]

[2] = tested on: frozen-thawed rooster sperm; assay: Restoration of binding capability of frozen-thawed rooster sperm to hen's egg membrane extract (Examples 1, 2, 6, 7); type: cell-based; conditions: FIG. 2
Text: Although the invention has been described generally above, particular examples give additional illustration of the products and method steps typical of the present polypeptide and uses thereof. The data presented in FIGS. 1 to 3 and 6 to 9 show the number of sperm bound per unit area of laid hen's egg perivitelline membrane, or data derived from such binding, or bound to a substrate prepared using an extract from such perivitelline membranes pursuant to the method disclosed in co-pending patent application Ser. No. 08/234,448. Except when noted, native protein extracted from rooster sperm with UPSEBP activity was used.
Freshly collected rooster sperm were cryopreserved, thawed and processed to remove glycerol. One portion of the thawed sperm received crude UPSEBP at a concentration of 2 μg protein per 10^6 sperm. Samples containing 1-10×10^6 sperm were placed into wells coated with an extract of hen's egg membrane and incubated 180 minutes. Non-bound sperm were removed by washing, and bound sperm were stained with diamido-2-phenylindole and counted using an epifluorescent microscope.
Rooster sperm subjected to a cryopreservation cycle were treated with increasing amounts of partially purified UPSEBP and subject to a standard binding assay, together with aliquots of unfrozen (fresh) sperm.
Frozen-thawed turkey sperm were exposed to rooster UPSEBP or semi-purified SGP-1.

Molecule: CQSLQEYLAEQNQRQLESNKIPEVDLARVVAPFMSNIPLLLYPQDRPRSQPQPKANEDVC (cysteine pairing not given here) [SEQ ID NO:12]
Biological activity / sperm binding capability (in words) [1]: conferred substantial binding activity especially when oxidized to form a molecule with a hairpin form

Activity relative to SEQ ID NO: 1 [1]: 0.0006 | Biological activity / sperm binding capability (in words) [1]: lower binding capability | Peptide concentration which, after tenfold dilution of the sperm suspension, provided maximum binding [1]: 300 nmol
Molecule: SEQ ID NO:2: Table 1 sequence: Tyr-Pro-Gln-Asp-Arg-Thr-Arg-Ser-Gln-Pro-Gln-Pro (YPQDRTRSQPQP; Portion of SEQ ID NO 1 showing lower binding capability.)

Activity relative to SEQ ID NO: 1 [1]: 0.0001 | Biological activity / sperm binding capability (in words) [1]: essentially devoid of binding capability | Peptide concentration which, after tenfold dilution of the sperm suspension, provided maximum binding [1]: 2,125 nanomoles
Molecule: SEQ ID NO:3: Table 1 sequence: Gln-Pro-Gln-Pro-Lys-Ala-Asn (QPQPKAN; Portion of SEQ ID NO 1 essentially devoid of binding capability.)

Activity relative to SEQ ID NO: 1 [1]: 0.002 | Peptide concentration which, after tenfold dilution of the sperm suspension, provided maximum binding [1]: 85 nmol
Molecule: SEQ ID NO:4: Table 1 sequence: Gln-Pro-Gln-Pro-Lys-Ala-Asn-Glu-Asp-Val-Cys-Gln-Asp-Cys-Met (QPQPKANEDVCQDCM; Addition of amino acids distal to the terminal asparagine of SEQ ID NO 3 does not substantially change biological activity.)
Biological activity / sperm binding capability (in words) [1]: did not substantially change biological activity

Activity relative to SEQ ID NO: 1 [1]: 0.0003 | Peptide concentration which, after tenfold dilution of the sperm suspension, provided maximum binding [1]: 510 nmol
Molecule: SEQ ID NO:5: Table 1 sequence: Pro-Gln-Pro-Lys-Ala-Asn-Glu-Asp-Val-Cys-Gln-Asp-Cys-Met-Lys-Leu-Val-Thr-Asp (PQPKANEDVCQDCMKLVTD; Addition of amino acids distal to the terminal asparagine of SEQ ID NO 3 does not substantially change biological activity.)

Activity relative to SEQ ID NO: 1 [1]: 0.0005 | Peptide concentration which, after tenfold dilution of the sperm suspension, provided maximum binding [1]: 370 nmol
Molecule: SEQ ID NO:6: Table 1 sequence: Tyr-Pro-Gln-Asp-Arg-Thr-Arg-Ser-Gln-Pro-Gln-Cys (YPQDRTRSQPQC; Replacement of the terminal proline of SEQ ID NO 2 with a cysteine does not substantially change biological activity.)
Biological activity / sperm binding capability (in words) [1]: minimal change in biological activity relative to SEQ ID NO:2

Activity relative to SEQ ID NO: 1 [1]: 0.003 | Peptide concentration which, after tenfold dilution of the sperm suspension, provided maximum binding [1]: 50 nmol
Molecule: SEQ ID NO:7: Table 1 sequence: Acetyl-Tyr-Pro-Gln-Asp-Arg-Thr-Arg-Ser-Gln-Pro-Gln-Pro (Ac-YPQDRTRSQPQP)
Biological activity / sperm binding capability (in words) [1]: did not suppress biological activity relative to SEQ ID NO:2

Activity relative to SEQ ID NO: 1 [1]: 0.002 | Peptide concentration which, after tenfold dilution of the sperm suspension, provided maximum binding [1]: 100 nmol
Molecule: SEQ ID NO:8: Table 1 sequence: Phe-Phe-Tyr-Pro-Gln-Asp-Arg-Thr-Arg-Ser-Gln-Pro-Gln-Pro (FFYPQDRTRSQPQP; Addition of a phenylalanine group to the NH2 end of SEQ ID NO 2 does not substantially suppress biological activity.)
Biological activity / sperm binding capability (in words) [1]: did not suppress biological activity relative to SEQ ID NO:2

Activity relative to SEQ ID NO: 1 [1]: 0.94 | Peptide concentration which, after tenfold dilution of the sperm suspension, provided maximum binding [1]: 8.8 nmol
Molecule: SEQ ID NO:10: Table 1 sequence: L-Leu-Tyr-Pro-Gln-Asp-Arg-Thr-Arg-Ser-Gln-Pro-Gln-Pro-Lys-Ala-Asn (LYPQDRTRSQPQPKAN; L-amino acids; SITE 1 L-isomer)
Biological activity / sperm binding capability (in words) [1]: greater than that of SEQ ID NO:11; also recorded: reduced activity relative to SEQ ID NO:1

Activity relative to SEQ ID NO: 1 [1]: 0.001 | Biological activity / sperm binding capability (in words) [1]: reduced activity relative to SEQ ID NO:1 | Peptide concentration which, after tenfold dilution of the sperm suspension, provided maximum binding [1]: 25 nmol
Molecule: SEQ ID NO:11: Table 1 sequence: D-Leu-Tyr-Pro-Gln-Asp-Arg-Thr-Arg-Ser-Gln-Pro-Gln-Pro-Lys-Ala-Asn ([dL]YPQDRTRSQPQPKAN)

Activity relative to the linear form of SEQ ID NO:12 [1]: 5 times | Potency relative to SEQ ID NO:1 [1]: 425 times | Biological activity / sperm binding capability (in words) [1]: enhanced biological activity | Concentration at which binding activity was induced (active at) [1]: 0.4 pM
Molecule: SEQ ID NO:12 hairpin form: SEQ ID NO:12 modified by induced oxidation of the SH-groups to a closed loop (CQSLQEYLAEQNQRQLESNKIPEVDLARVVAPFMSNIPLLLYPQDRPRSQPQPKANEDVC; disulfide 1-60 (inferred))

Potency relative to SEQ ID NO:9 [1]: approximately 90 times | Biological activity / sperm binding capability (in words) [1]: substantial biological activity | Concentration at which binding activity was induced (active at) [1]: 2 pM
Molecule: SEQ ID NO:12 linear form: SEQ ID NO:12 as synthesized, 60 amino acid molecule (CQSLQEYLAEQNQRQLESNKIPEVDLARVVAPFMSNIPLLLYPQDRPRSQPQPKANEDVC; Synthetic peptide embodying the complete intervening sequence between rat saposin A and saposin B.)

Activity relative to SEQ ID NO: 1 [1]: 0.94 | Peptide concentration which, after tenfold dilution of the sperm suspension, provided maximum binding [1]: 0.18 nmol
Molecule: YPQDRPRSQPQPKAN [SEQ ID NO:9]
Biological activity / sperm binding capability (in words) [1]: substantial binding activity; also recorded: very high biological activity, approximately equal to that of SEQ ID NO:1

Activity relative to SEQ ID NO: 1 [1]: 1 | Peptide concentration which, after tenfold dilution of the sperm suspension, provided maximum binding [1]: 3.17 nmol | Biological activity / sperm binding capability (in words) ([1]; listed as SEQ NO:1): substantial binding activity | Number of sperm bound to the egg membrane substrate ([1]; nanomolar concentrations of peptide): approximately twice as many sperm bound
Molecule: YPQDRTRSQPQPKAN [SEQ ID NO:1]
Biological activity / sperm binding capability (in words) [1]: greater biological activity than SEQ ID NO:2 through SEQ ID NO:8

Binding restored, percent of that obtained by exposure to UPSEBP ([2]; UPSEBP 2 μg/million sperm): about 70%
B1: human saposin B: human saposin produced by proteolytic cleavage of prosaposin (protein, UniProt P07602 195-273, looked up)
Saposin-B: GDVCQDCIQMVTDIQTAVRTNSTFVQALVEHVKEECDRLGPGMADICKNYISQYSEIAIQMMMHMQPKEICALVGFCDE
modifications: Saposin-B
notes: human saposin produced by proteolytic cleavage of prosaposin

Restoration of binding (in words) [2]: ineffective at restoring binding
B2: saposin A: human saposin produced by proteolytic cleavage of prosaposin (protein, UniProt P07602 60-142, looked up)
Saposin-A: SLPCDICKDVVTAAGDMLKDNATEEEILVYLEKTCDWLPKPNMSASCKEIVDSYLPVILDIIKGEMSRPGEVCSALNLCESLQ
modifications: Saposin-A
notes: as for B1

Restoration of binding (in words) [2]: ineffective at restoring binding
B3: saposin C: human saposin produced by proteolytic cleavage of prosaposin (protein, UniProt P07602 311-390, looked up)
Saposin-C: SDVYCEVCEFLVKEVTKLIDNNKTEKEILDAFDKMCSKLPKSLSEECQEVVDTYGSSILSILLEEVSPELVCSMLHLCSG
modifications: Saposin-C
notes: as for B1

Restoration of binding (in words) [2]: ineffective at restoring binding
B4: saposin D: human saposin produced by proteolytic cleavage of prosaposin (protein, UniProt P07602 405-486, looked up)
Saposin-D: DGGFCEVCKKLVGYLDRNLEKNSTKQEILAALEKGCSFLPDPYQKQCDQFVAEYEPVLIEILVEVMDPSFVCLKIGACPSAH
modifications: Saposin-D
notes: as for B1
